In publication PMC9115112, “A2B adenosine receptor antagonists rescue lymphocyte activity in adenosine-producing patient-derived cancer models” (Journal for Immunotherapy of Cancer, 2022):

Assays:
[1] = test system: breast cancer TILs against autologous tumor cells; assay: Chromium (51Cr) release cytotoxicity assay, breast cancer TILs; assay type: cell-based, human; details: synthetic ADO, 48 hours
Protocol: Chromium (51Cr) release cytotoxicity assay
Chromium (51Cr) release assay was used to measure the autologous TILs-mediated cytotoxicity against the established patient-derived breast and […] cell lines. Briefly, breast and sarcoma tumor cells were labelled with 51Cr (PerkinElmer) as target cells and seeded on 96-well V-bottom plate (Corning) at 5 000cells/well. Effector TILs were added at the indicated Effector: Target (E:T) ratios. The supernatants were collected carefully into LUMA plates (PerkinElmer) after 24 and 48 hours of co-culture. After drying overnight, radioactivity of the plate was read with MicroBeta2 (PerkinElmer).
Relative adenosine production assay
An ectonucleotidase CD73 assay was optimized to measure the relative ADO production based on competitive AMP blockade and presence of CD73+ cells. Day five patient-derived sarcoma spheroids were digested and split into triplicates in X-VIVO20 and 1% PS culture media with an excessive amount of AMP at 0.4mM (Sigma-Aldrich) incubated for 30 minutes.
After 1500 RPM was applied for three minutes, 25 μL supernatant were removed and mixed with 25 μL of 200 μM ATP (Sigma-Aldrich) in the same media. 25 μL of this mixture was added to a white opaque OptiPlate (PerkinElmer) containing 25 μL Cell-Titer Glo reagent (Promega, US). Relative luminescence unit (RLU) can be read on SPARK 10M plate reader with an integration time of 100ms. […]

human A1AR = target: T1, human A1AR (Homo sapiens, UniProt P30542); assay: Radioligand binding, human A1AR ([3H]DPCPX, transfected CHO cells); details: displacement of [3H]DPCPX, n=3, racemic mixtures
T1 construct: expressed in transfected cells; host or cells: CHO
T1 sequence (P30542 1-326): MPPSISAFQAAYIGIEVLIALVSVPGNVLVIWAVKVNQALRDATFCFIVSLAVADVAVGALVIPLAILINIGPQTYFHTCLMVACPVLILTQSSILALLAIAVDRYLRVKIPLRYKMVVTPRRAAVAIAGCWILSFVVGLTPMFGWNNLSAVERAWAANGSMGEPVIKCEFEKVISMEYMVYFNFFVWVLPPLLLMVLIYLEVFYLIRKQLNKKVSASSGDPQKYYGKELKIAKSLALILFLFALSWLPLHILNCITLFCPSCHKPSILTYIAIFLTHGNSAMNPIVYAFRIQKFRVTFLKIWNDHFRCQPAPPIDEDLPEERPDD
Protocol: (§1) The affinity and selectivity profiles of the ligands obtained was studied in vitro, radioligand binding assays, at the four human specific ARs subtypes, using experimental protocols previously described.[28–30] All ligands were prepared and tested as racemic mixtures. […] Non-specific binding was determined in the presence of R-PIA 10 µM for A1AR, NECA 50 µM for A2AAR, NECA 400 μΜ for A2BAR and R-PIA 100 μΜ for A3AR.

[2] = test system: pAMPK in CD4 and CD8 T cells; assay: Extracellular ADO uptake assay via pAMPK staining; assay type: cell-based, human; details: antagonist 12 µM, 50 µM exogenous adenosine, n=7 healthy donors
Protocol: Experimental setup was adopted from a previous study whereby AR antagonist was added to pretreat cells before exogenous adenosine treatment for intracellular and cytokine staining.[37] In brief, PBMCs were treated with 12 µM of A2BAR antagonists for 90 min before the addition of 50 µM of adenosine for 2 hours. Cells were harvested after 3 hours of CD3/CD28 bead stimulation before intracellular staining with phosphor-AMPK (Thr183, Thr172) rabbit primary antibody (Thermo Fisher Scientific) and antirabbit secondary antibody (BD biosciences).
Figure 4 Rescue of lymphocyte proinflammatory cytokine production IFNy and perforin by A2BAR antagonism. (A,B) Inhibition of extracellular adenosine uptake via phosphorylated-AMP activated protein kinase (pAMPK) staining (n=7 healthy donors). Production of proinflammatory cytokines—(C,D) IFNy and (E) perforin in CD4 (n=5 healthy donors) and CD8 (n=6 healthy donors) T cells. Expression of CD69 adhesion molecule in (F). CD4 (n=7 healthy donors) and (G) CD8 (n=4 healthy donors) T cells. A2BAR antagonist 12 µM was added. Outlier is presented as diamond shape and defined by Tukey’s rule, which is not included in statistical analysis. Box plots with minimum, first quartile, median, third quartile, and maximum are presented. Normalized fold change is based on percent values compared with untreated controls. Unpaired and non-parametric statistical analysis—Mann-Whitney test was performed against untreated control with *p<0.05, **p<0.01, ***p<0.001, and ****p<0.0001.

human A3AR = target: T2, human A3AR (Homo sapiens, UniProt P0DMS8); assay: Radioligand binding, human A3AR ([3H]NECA, transfected HeLa cells); details: displacement of [3H]NECA, n=3, racemic mixtures
T2 construct: expressed in transfected cells; host or cells: HeLa
T2 sequence (P0DMS8 1-318): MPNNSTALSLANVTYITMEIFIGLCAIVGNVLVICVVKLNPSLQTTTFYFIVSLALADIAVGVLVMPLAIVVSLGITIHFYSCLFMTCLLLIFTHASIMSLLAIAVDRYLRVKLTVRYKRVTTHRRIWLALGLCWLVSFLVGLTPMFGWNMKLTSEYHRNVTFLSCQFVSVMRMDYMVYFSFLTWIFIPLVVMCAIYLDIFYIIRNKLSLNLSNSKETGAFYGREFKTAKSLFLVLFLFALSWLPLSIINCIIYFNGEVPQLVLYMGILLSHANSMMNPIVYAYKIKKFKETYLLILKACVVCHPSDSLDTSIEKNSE
Protocol: as §1

Row | Compound | Rescue of killing of breast cancer TILs against autologous tumor cells [1] | Ki hA1 (human A1AR; human CHO cells) | pAMPK (extracellular ADO uptake) in CD8 T cells [2] | Ki hA3 (human A3AR) | Ki (human A1AR; transfected CHO cells, read-out: Ki hA1) | pAMPK (extracellular ADO uptake) in CD4 T cells [2] | Ki (human A3AR; read-out: Ki hA3)
1 | CC1=C(C(=O)OC(C)C)C(c2ccoc2)n2c(nc3cc(Cl)ccc32)N1 (stereo not drawn) [ISAM-M89A] | rescued killing | devoid of affinity | significantly inhibited ADO uptake | devoid of affinity |  |  | 
2 | CC1=C(C(=O)OC(C)C)C(c2ccco2)n2c(nc3ccccc32)N1Cc1ccccc1F (stereo not drawn) [ISAM-R56A] | rescued killing |  | significantly downregulated pAMPK |  | > 1000 nM | significantly downregulated pAMPK | > 1000 nM
